system: SD rats; experiment: Assay for the effect on urinary glucose excretion; assay type: in vivo, rat; conditions: overnight fasted male SD rats, oral 1 mg/kg, urine collected for 24 hours
Excerpt: Assay for the Effect on Urinary Glucose Excretion
As experimental animals, overnight fasted SD rats (CHARLES RIVER LABORATORIES JAPAN. Inc., Crj:CD(SD)IGS, male, 7-8 weeks of age, 180-300 g) were used. The test compound was suspended with 0.5% methylcellulose solution and the suspension was used for administration. On the day before drug administration, the rats were transferred in metabolic cages and fasted from the evening. Throughout the study, the rats were given water ad libitum. The test compound was orally administered at the dose of 1 mg/kg and urine collection was performed for 24 hours after the compound administration. The rats were fed ad libitum from 4 hours after the compound administration. The volume of urine collected was measured and a part of urine was used as a sample for glucose concentration measurement. The samples were diluted as appropriate and the glucose concentrations were measured with Glucose CII-Test WAKO (Wako Pure Chemical Industries, Ltd.) and the amount of urinary glucose excretion per 200 g of body weight was calculated.

Point of comparison: `COc1ccc(Cn2cc([C@@H]3O[C@H](CO)[C@@H](O)[C@H](O)[C@H]3O)c3c(C)cccc32)cc1` [Example 2], “Amount of urinary excretion of glucose in 24 hours” value 27 mg/200 g body weight. Against it:
- CCc1ccc(Cn2cc([C@@H]3O[C@H](CO)[C@@H](O)[C@H](O)[C@H]3O)c3c(C)cccc32)cc1 [Example 1, 1-(4-Ethylbenzyl)-3-(β-D-glucopyranosyl)-4-methyl-1H-indole] — higher, 182 mg/200 g body weight
- CCc1ccc(Cn2cc([C@@H]3O[C@H](CO)[C@@H](O)[C@H](O)[C@H]3O)c3ccccc32)cc1 [Example 3] — lower, 15 mg/200 g body weight
- CCc1ccc(Cn2cc([C@@H]3O[C@H](CO)[C@@H](O)[C@H](O)[C@H]3O)c3cccc(C)c32)cc1 [Example 5] — higher, 76 mg/200 g body weight
- CCc1ccc(Cn2cc([C@@H]3O[C@H](CO)[C@@H](O)[C@H](O)[C@H]3O)c3cc(C)ccc32)cc1 [Example 7] — higher, 122 mg/200 g body weight
- Cc1ccc2c(c1)c([C@@H]1O[C@H](CO)[C@@H](O)[C@H](O)[C@H]1O)cn2Cc1ccc(OC(C)C)cc1 [Example 11] — higher, 33 mg/200 g body weight
- COc1ccc(Cn2cc([C@@H]3O[C@H](CO)[C@@H](O)[C@H](O)[C@H]3O)c3c(C)cccc32)c(F)c1 [Example 28] — higher, 36 mg/200 g body weight
- CCc1ccc(Cn2cc([C@@H]3O[C@H](CO)[C@@H](O)[C@H](O)[C@H]3O)c3cccc(F)c32)cc1 [Example 61] — higher, 98 mg/200 g body weight
- COc1ccc(Cn2cc([C@@H]3O[C@H](CO)[C@@H](O)[C@H](O)[C@H]3O)c3cccc(F)c32)cc1 [Example 63] — higher, 213 mg/200 g body weight
- OC[C@H]1O[C@@H](c2cn(Cc3ccc(OC(F)F)cc3)c3c(F)cccc23)[C@H](O)[C@@H](O)[C@@H]1O [Example 66] — lower, 24 mg/200 g body weight
- OCCc1ccc(Cn2cc([C@@H]3O[C@H](CO)[C@@H](O)[C@H](O)[C@H]3O)c3cccc(F)c32)cc1 [Example 67] — lower, 17 mg/200 g body weight
- Cc1ccc(Cn2cc([C@@H]3O[C@H](CO)[C@@H](O)[C@H](O)[C@H]3O)c3cccc(Cl)c32)cc1 [Example 70] — higher, 173 mg/200 g body weight
- CCc1ccc(Cn2cc([C@@H]3O[C@H](CO)[C@@H](O)[C@H](O)[C@H]3O)c3cccc(Cl)c32)cc1 [Example 71] — higher, 517 mg/200 g body weight
- COc1ccc(Cn2cc([C@@H]3O[C@H](CO)[C@@H](O)[C@H](O)[C@H]3O)c3cccc(Cl)c32)cc1 [Example 73] — higher, 532 mg/200 g body weight
- COc1ccc(Cn2cc([C@@H]3O[C@H](CO)[C@@H](O)[C@H](O)[C@H]3O)c3cccc(Cl)c32)c(F)c1 [Example 74] — higher, 629 mg/200 g body weight
- CCOc1ccc(Cn2cc([C@@H]3O[C@H](CO)[C@@H](O)[C@H](O)[C@H]3O)c3cccc(Cl)c32)c(F)c1 [Example 75] — lower, 18 mg/200 g body weight
- OCCc1ccc(Cn2cc([C@@H]3O[C@H](CO)[C@@H](O)[C@H](O)[C@H]3O)c3cccc(Cl)c32)cc1 [Example 78] — higher, 54 mg/200 g body weight
- Cc1ccc(Cn2cc([C@@H]3O[C@H](CO)[C@@H](O)[C@H](O)[C@H]3O)c3cc(C)cc(F)c32)cc1 [Example 93] — higher, 275 mg/200 g body weight
- CCc1ccc(Cn2cc([C@@H]3O[C@H](CO)[C@@H](O)[C@H](O)[C@H]3O)c3cc(C)cc(F)c32)cc1 [Example 94] — higher, 945 mg/200 g body weight
- Cc1cc(F)c2c(c1)c([C@@H]1O[C@H](CO)[C@@H](O)[C@H](O)[C@H]1O)cn2Cc1ccc(O)cc1 [Example 95] — higher, 40 mg/200 g body weight
- COc1ccc(Cn2cc([C@@H]3O[C@H](CO)[C@@H](O)[C@H](O)[C@H]3O)c3cc(C)cc(F)c32)cc1 [Example 96] — higher, 588 mg/200 g body weight
- COc1ccc(Cn2cc([C@@H]3O[C@H](CO)[C@@H](O)[C@H](O)[C@H]3O)c3cc(C)cc(F)c32)c(F)c1 [Example 97] — higher, 507 mg/200 g body weight
- Cc1cc(F)c2c(c1)c([C@@H]1O[C@H](CO)[C@@H](O)[C@H](O)[C@H]1O)cn2Cc1ccc(CCO)cc1 [Example 99] — higher, 47 mg/200 g body weight
- Cc1ccc(Cn2cc([C@@H]3O[C@H](CO)[C@@H](O)[C@H](O)[C@H]3O)c3cc(C)cc(Cl)c32)cc1 [Example 102] — higher, 933 mg/200 g body weight
- Cc1cc(Cl)c2c(c1)c([C@@H]1O[C@H](CO)[C@@H](O)[C@H](O)[C@H]1O)cn2Cc1ccc(O)cc1 [Example 104] — higher, 349 mg/200 g body weight
- COc1ccc(Cn2cc([C@@H]3O[C@H](CO)[C@@H](O)[C@H](O)[C@H]3O)c3cc(C)cc(Cl)c32)cc1 [Example 105] — higher, 1693 mg/200 g body weight
- COc1ccc(Cn2cc([C@@H]3O[C@H](CO)[C@@H](O)[C@H](O)[C@H]3O)c3cc(C)cc(Cl)c32)c(F)c1 [Example 106] — higher, 1910 mg/200 g body weight
- Cc1cc(Cl)c2c(c1)c([C@@H]1O[C@H](CO)[C@@H](O)[C@H](O)[C@H]1O)cn2Cc1ccc(OC(F)F)cc1 [Example 108] — higher, 1229 mg/200 g body weight
- COc1ccc(Cn2cc([C@@H]3O[C@H](CO)[C@@H](O)[C@H](O)[C@H]3O)c3cc(C)cc(C)c32)cc1 [Example 114] — higher, 520 mg/200 g body weight
- CCc1ccc(Cn2cc([C@@H]3O[C@H](CO)[C@@H](O)[C@H](O)[C@H]3O)c3c(C)ccc(F)c32)cc1 [Example 116] — lower, 24 mg/200 g body weight
- COc1ccc(Cn2cc([C@@H]3O[C@H](CO)[C@@H](O)[C@H](O)[C@H]3O)c3c(C)ccc(F)c32)cc1 [Example 118] — lower, 12 mg/200 g body weight
- COc1ccc(Cn2cc([C@@H]3O[C@H](CO)[C@@H](O)[C@H](O)[C@H]3O)c3c(C)ccc(Cl)c32)cc1 [Example 124] — higher, 37 mg/200 g body weight
- COc1ccc(Cn2cc([C@@H]3O[C@H](CO)[C@@H](O)[C@H](O)[C@H]3O)c3c(C)ccc(Cl)c32)c(F)c1 [Example 125] — higher, 50 mg/200 g body weight
- CCOc1ccc(Cn2cc([C@@H]3O[C@H](CO)[C@@H](O)[C@H](O)[C@H]3O)c3cccc(F)c32)cc1 [Example 144] — higher, 251 mg/200 g body weight
- CC(C)Oc1ccc(Cn2cc([C@@H]3O[C@H](CO)[C@@H](O)[C@H](O)[C@H]3O)c3cccc(F)c32)cc1 [Example 145] — lower, 11 mg/200 g body weight
- CCOc1ccc(Cn2cc([C@@H]3O[C@H](CO)[C@@H](O)[C@H](O)[C@H]3O)c3cccc(Cl)c32)cc1 [Example 146] — higher, 733 mg/200 g body weight
- CC(C)Oc1ccc(Cn2cc([C@@H]3O[C@H](CO)[C@@H](O)[C@H](O)[C@H]3O)c3cccc(Cl)c32)cc1 [Example 147] — higher, 295 mg/200 g body weight
- CCOc1ccc(Cn2cc([C@@H]3O[C@H](CO)[C@@H](O)[C@H](O)[C@H]3O)c3cc(C)cc(F)c32)cc1 [Example 156] — higher, 784 mg/200 g body weight
- CCOc1ccc(Cn2cc([C@@H]3O[C@H](CO)[C@@H](O)[C@H](O)[C@H]3O)c3cc(C)cc(Cl)c32)cc1 [Example 158] — higher, 1708 mg/200 g body weight
